From US12624350B2, “High-throughput single-nuclei and single-cell libraries and methods of making and of using” (ILLUMINA, INC., priority 2019, dated 2026)

Key:
Type in all cases: cell-based, human
[1] = test system: HEK293T cells; experiment: flavopiridol time course, sci-RNA-seq with hash ladder; conditions: 300 nM, longest exposure times
Description: For the flavopiridol time course experiment, HEK293T cells were seeded onto a 6-well culture plate at a density of 4×10^5 cells per well. For the HDAC inhibitor time course and HDAC inhibitor and Dexamethasone co-treatment experiments, A549 cells were seeded onto a 96-well culture plate at a density of 2.5×10^4 cells per well.
The cells were grown for 24 hours after they were seeded onto the cell culture plates. For the flavopiridol time course experiment, 0.9 uL of 1 mM flavopiridol was added to each 6 well to attain final concentration of 300 nM. […]
The capture of hash ladder by nuclei is determined by factors including, but not limited to, sample processing and sequencing depth. […] We empirically determined that the ladder should be constructed so that around 6 million hash molecules are captured per nuclei (assuming that each nucleus takes up equal amount of hash molecules in the solution) to obtain a median hash UMI count of 1,000-5,000. […]
For the harvest of cells, media was removed and cells were washed with DPBS and dissociated off the plate using trypLE. […] Cells were then counted with a hemocytometer using 0.4% Trypan Blue. […]
Isolated and hashed nuclei were then permeabilized in permeabilization buffer (0.25% Triton-X in NSB) for 3 minutes on ice and then spun down. […] Cell counts were obtained by staining nuclei with 0.4% Trypan Blue (Sigma-Aldrich) and counted using a hemocytometer. […]

[2] = test system: A549; experiment: sci-Plex of A549 cells treated for 72 hours with one of 48 compounds; conditions: A549, 72 hours
Description: Such heterogeneity could be explained by cells executing a defined transcriptional program asynchronously, with the dose of drug that the cells are exposed to modulating the rates of their progression through it. To test this hypothesis, we sequenced the transcriptomes of 64,440 A549 cells that were treated for 72 hours with one of 48 compounds, including many of the HDAC inhibitors from the large sci-Plex screen.
For 96-well experiments, adherent cells were trypsinized, washed with PBS and plated in tissue culture treated 96 well flat bottom plates (Thermo Fisher Scientific, cat no. 12-656-66) at 25,000 cells per well in 100 μL of media. Suspension cells were washed with PBS and plated in 96 well V-bottom tissue culture plates (Thermo Fisher Scientific, cat no. 549935) at 25,000 cells per well in 100 μL of media. Cells were allowed to recover for 24 hours before treatment with 1 μL of a 1:10 dilution of the appropriate compound or vehicle in PBS to maintain a vehicle concentration of 0.1% for all wells. […]
To organize cells treated with HDAC inhibitors into a trajectory cells were sampled to equalize the number of cells represented between the three cell lines or between treatments at 24 and 72 hrs. […] All other cells' pseudodoses was measured as the geodesic distance between their nearest principal graph node to an origin node.

[3] = test system: A549; experiment: pilot sci-Plex experiment (sci-RNA-seq2), four compounds; conditions: A549, 24 hours, seven doses
Description: We exposed A549, a human lung adenocarcinoma cell line, to one of four compounds: dexamethasone (a corticosteroid agonist), nutlin-3a (a p53-Mdm2 antagonist), BMS-345541 (an inhibitor of nuclear factor kB-dependent transcription), or vorinostat [suberoylanilide hydroxamic acid (SAHA), an HDAC inhibitor], for 24 hours across seven doses in triplicate for a total of 84 drug-dose-replicate combinations and additional vehicle controls (FIG. 6A and FIG. 7A). We labeled nuclei from each well and subjected them to sci-RNA-seq2 (FIG. 7, B to D, and Table 1).
To quantify the “population average” transcriptional response of A549 cells to each of the four drugs, we modeled each gene's expression as a function of dose through generalized linear regression. […] Additionally, we evaluated whether the number of cells recovered at each concentration could be used to infer toxicity akin to traditional screens.

[4] = test system: lung adenocarcinoma-derived (A549) cells; experiment: sciPlex-ATAC-seq chemical screen (single-cell chromatin accessibility); conditions: A549, 24 hours
Description: Each well of a 96-well culture dish was treated for 24 hours with Nutlin-3A (p53 agonist), SAHA (broad spectrum histone deacetylase inhibitor), BMS345541 (NF-kB inhibitor), Dexamethasone (glucocorticoid receptor agonist) or a vehicle control. Moreover, we varied the dose of drug added to each well, such that the effects of each compound could be evaluated at seven different concentrations. Finally, all treatments were performed in biological triplicate (FIG. 42A). After applying unique labels to each well, cells from all conditions were pooled for parallel preparation of single cell accessible chromatin profiles.
Adherent cells grown in 96 well format were prepared by first aspirating the existing media. 50 µL of TrypLE (Termo-Fisher) was then added per well and the plate was incubated at 37 C for 15 minutes for A549. After incubation, 1504 of 1×DMEM (Gibco)+10% FBS (Gibco) was added to quench the TrypLE reaction. The 2004 volume cell suspension in each well was then transferred into a V-bottom 96 well plate, preserving the well orientations. Cells were then spun for 5 minutes at 300 g to pellet cells before aspirating media. Cell pellets were washed with 100 μL 1×DPBS and then pelleted at 300 g for 5 minutes. […]
Pooled, hash-labeled nuclei were thawed on ice, inspected for nuclei integrity, counted and further adjusted to 2.5 million nuclei/mL if necessary. […]

Compound: CN1CC[C@H](c2c(O)cc(O)c3c(=O)cc(-c4ccccc4Cl)oc23)[C@H](O)C1 [flavopiridol]
- RNA recovery per-cell (total RNA UMI counts) [1]: greatest reduction in RNA recovery per-cell

Compound: Cc1nc(-c2cccnc2)sc1C(=O)Nc1ccccc1-c1cn2c(CN3CCOCC3)csc2n1 [SRT1024]
- focal concentrations of cells in coembedded UMAP projection, 72 hours versus 24 hours [2]: new focal concentrations of cells at 72 hours

Compound: COc1ccc(C2=N[C@@H](c3ccc(Cl)cc3)[C@@H](c3ccc(Cl)cc3)N2C(=O)N2CCNC(=O)C2)c(OC(C)C)c1 [nutlin-3a]
- drug-specific pathways revealed by gene ontology analysis of differentially expressed genes [3]: p53 signaling

Compound: O=C(CCCCCCC(=O)Nc1ccccc1)NO [SAHA, suberoylanilide hydroxamic acid]
- accessibility of non-coding sites upstream of the COPS7A locus [4]: dose dependent accessibility
- dosage-dependent change of the chromatin regulatory landscape ([4]; seven concentrations): increasingly altered regulatory landscapes with higher doses
